The target of one experiment is T1, c-kit kinase (Homo sapiens, UniProt P10721).
T1 construct: The c-kit (or kinase domain thereof) is an active kinase in AlphaScreen; poly-Histidine tag (in-house protein only) (cleaved yes); host or cells: E. coli BL21(DE3)RIL, co-expressed with PTP1B
The experiment is described as follows: c-Kit biochemical assay, AlphaScreen, 10 μM ATP. The settings on record: for IC50: c-kit biochemical inhibitory activity, read-out: Biochemical activity (IC50 μM) Kit. In short, it runs like this:
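His-tagged c-Kit expressed in E. coli with co-expressed PTP1B (dephosphorylated), tag removed; 0.1 ng per reaction with biotinylated-peptide substrate in 50 mM HEPES pH 7.2, 5 mM MgCl2, 5 mM MnCl2, 5% DMSO, 10 μM ATP, 1 h at room temperature. Phosphorylation detected by AlphaScreen (streptavidin donor, PY20 acceptor beads); IC50 from 8-point 1:3 dilution series.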
A general note: Alpha assays give light when donor and acceptor beads are brought close together.

For the next experiment, the target named is T2, c-kit mutant D816V (Homo sapiens, UniProt P10721, D816V/DEL694-753).
T2 construct: residues 551-934, kinase insertion domain residues 694-753 deleted; 6x-histidine (N); made in house; host or cells: E. coli Arctic Express (DE3) RIL (Stratagene)
T2 sequence (P10721 with tags, fused parts or gaps DEL694-753/D816V): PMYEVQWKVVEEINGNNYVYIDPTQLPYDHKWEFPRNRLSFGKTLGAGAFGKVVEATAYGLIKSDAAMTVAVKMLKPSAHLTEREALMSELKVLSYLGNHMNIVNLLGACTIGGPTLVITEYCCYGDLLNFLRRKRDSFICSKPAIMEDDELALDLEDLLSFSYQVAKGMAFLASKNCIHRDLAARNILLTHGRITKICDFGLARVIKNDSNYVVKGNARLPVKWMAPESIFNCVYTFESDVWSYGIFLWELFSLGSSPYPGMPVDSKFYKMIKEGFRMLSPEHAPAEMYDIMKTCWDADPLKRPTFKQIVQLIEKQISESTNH
The experiment is described as follows: c-Kit mutant D816V biochemical assay, AlphaScreen. In short, it runs like this:
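Purified His-tagged c-Kit D816V (E. coli-expressed) assayed in 25 mM HEPES pH 7.2 with Mg/Mn, 5% DMSO and 10 μM ATP, 30 min at room temperature, 8-point 1:3 dilutions. Phosphorylation detected by AlphaScreen with streptavidin donor and PY20 acceptor beads; IC50 from signal versus concentration.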

The mark [1] stands for this setting: c-kit D816V biochemical inhibitory activity, read-out: Biochemical activity (IC50 μM) Kit D816V.

Drawing on patent US10227357B2, “Compounds and methods for kinase modulation, and indications therefor” (Plexxikon Inc., priority 2012, dated 2019), this text covers IC50 for 29 compounds.

Usually IC50 stands for the concentration at which inhibition is half-maximal. What is called pIC50 is the negative decadic logarithm of the IC50, by convention in mol/L.

Molecules are shown by their SMILES. pIC50: −log10 of the molar value. Like-named read-outs stand apart in the source and are kept apart here.

T1 sequence (P10721 26-976): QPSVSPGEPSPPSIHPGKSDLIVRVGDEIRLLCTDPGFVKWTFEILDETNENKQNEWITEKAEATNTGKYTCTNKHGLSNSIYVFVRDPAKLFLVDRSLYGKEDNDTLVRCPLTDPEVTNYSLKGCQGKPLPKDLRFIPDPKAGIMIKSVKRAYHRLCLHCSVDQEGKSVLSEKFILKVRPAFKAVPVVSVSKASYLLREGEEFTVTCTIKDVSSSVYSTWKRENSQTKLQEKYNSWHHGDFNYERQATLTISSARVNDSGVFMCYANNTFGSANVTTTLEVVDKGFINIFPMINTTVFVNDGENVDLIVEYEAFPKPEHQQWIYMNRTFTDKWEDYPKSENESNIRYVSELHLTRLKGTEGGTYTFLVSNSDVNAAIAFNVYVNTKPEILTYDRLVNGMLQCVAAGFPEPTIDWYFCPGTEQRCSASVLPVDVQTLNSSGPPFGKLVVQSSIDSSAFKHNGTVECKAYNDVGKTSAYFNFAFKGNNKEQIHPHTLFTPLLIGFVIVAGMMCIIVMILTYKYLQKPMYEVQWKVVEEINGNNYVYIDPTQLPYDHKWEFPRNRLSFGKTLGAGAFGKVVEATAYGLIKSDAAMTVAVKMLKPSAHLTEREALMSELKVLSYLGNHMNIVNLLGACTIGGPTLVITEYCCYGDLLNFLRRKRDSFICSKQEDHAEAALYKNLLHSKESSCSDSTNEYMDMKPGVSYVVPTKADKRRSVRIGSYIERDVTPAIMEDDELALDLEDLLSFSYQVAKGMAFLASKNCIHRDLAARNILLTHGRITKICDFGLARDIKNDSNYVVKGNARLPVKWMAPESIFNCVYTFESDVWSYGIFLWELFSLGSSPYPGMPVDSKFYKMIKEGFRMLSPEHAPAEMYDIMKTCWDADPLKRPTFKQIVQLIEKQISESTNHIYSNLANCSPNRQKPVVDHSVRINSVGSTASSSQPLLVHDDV

With `COc1cc2ncnc(-c3ccc(NS(C)(=O)=O)cc3F)c2cc1OCCCN1CCOCC1` [P-0252, N-[3-fluoro-4-[7-methoxy-6-(3-morpholinopropoxy)quinazolin-4-yl]phenyl]methanesulfonamide], the IC50 at c-kit kinase was in the range of 10 to 200 µM; on c-kit mutant D816V (setting [1]), 0.0001 to 1 µM.

On to `COc1cc2c(-c3ccc(NS(=O)(=O)N4CCCC4)cc3F)ncnc2cc1OCCCN1CCCCC1` [P-0253, N-[3-fluoro-4-[6-methoxy-7-[3-(1-piperidyl)propoxy]quinazolin-4-yl]phenyl]pyrrolidine-1-sulfonamide], for which the IC50 on c-kit kinase lay in the range of 1 to 10 µM; at c-kit mutant D816V (setting [1]), 0.0001 to 1 µM.

On to `[2H]C([2H])([2H])S(=O)(=O)Nc1ccc(-c2ncnc3cc(OCCCN4CCCCC4)c(OC)cc23)c(F)c1` [P-0254, 1,1,1-trideuterio-N-[3-fluoro-4-[6-methoxy-7-[3-(1-piperidyl)propoxy]quinazolin-4-yl]phenyl]methanesulfonamide], for which the IC50 on c-kit kinase is 1 to 10 µM; on c-kit mutant D816V (setting [1]) it was 0.0001 to 1 µM.

As to `COc1ccc(S(=O)(=O)Nc2ccc(-c3ncnc4cc(OCCCN5CCCCC5)c(OC)cc34)c(F)c2)cc1` [P-0255, N-[3-fluoro-4-[6-methoxy-7-[3-(1-piperidyl)propoxy]quinazolin-4-yl]phenyl]-4-methoxy-benzenesulfonamide], the IC50 on c-kit kinase and at c-kit mutant D816V (setting [1]) was 0.0001 to 1 µM in each case.

With `COc1cc2c(-c3ccc(NS(=O)(=O)c4ccc(Cl)cc4)cc3F)ncnc2cc1OCCCN1CCCCC1` [P-0256, 4-chloro-N-[3-fluoro-4-[6-methoxy-7-[3-(1-piperidyl)propoxy]quinazolin-4-yl]phenyl]benzenesulfonamide], the IC50 at c-kit kinase and on c-kit mutant D816V (setting [1]) was 0.0001 to 1 µM in each case.

For `COc1cc2c(-c3ccc(NS(=O)(=O)C4CC4)cc3F)ncnc2cc1OCCCN1CCCCC1` [P-0257, N-[3-fluoro-4-[6-methoxy-7-[3-(1-piperidyl)propoxy]quinazolin-4-yl]phenyl]cyclopropanesulfonamide], the figures for the IC50 at c-kit kinase and on c-kit mutant D816V (setting [1]) were 1 to 10 µM and 0.0001 to 1 µM, respectively.

As for `COc1cc2c(-c3ccc(NS(C)(=O)=O)cc3F)ncnc2cc1OCCCN1CCCCC1` [P-0258, N-[3-fluoro-4-[6-methoxy-7-[3-(1-piperidyl)propoxy]quinazolin-4-yl]phenyl]methanesulfonamide], the IC50 at c-kit kinase fell in the range of 1 to 10 µM; at c-kit mutant D816V (setting [1]), 0.0001 to 1 µM.

As for `COCCOc1cc2ncnc(-c3ccc(NS(=O)(=O)c4ccc(OC(F)F)cc4)cc3F)c2cc1OCCOC` [P-0259, N-[4-[6,7-bis(2-methoxyethoxy)quinazolin-4-yl]-3-fluoro-phenyl]-4-(difluoromethoxy)benzenesulfonamide], the IC50 lay in the range of 1 to 10 µM at c-kit kinase and 0.0001 to 1 µM at c-kit mutant D816V (setting [1]).

As to `COCCOc1cc2ncnc(-c3ccc(NS(=O)(=O)c4cccc(F)c4)cc3F)c2cc1OCCOC` [P-0260, N-[4-[6,7-bis(2-methoxyethoxy)quinazolin-4-yl]-3-fluoro-phenyl]-3-fluoro-benzenesulfonamide], the IC50 lay within 1 to 10 µM at c-kit kinase and 0.0001 to 1 µM on c-kit mutant D816V (setting [1]).

On to `COCCOc1cc2ncnc(-c3ccc(NS(=O)(=O)c4ccc(Cl)cc4)cc3F)c2cc1OCCOC` [P-0261, N-[4-[6,7-bis(2-methoxyethoxy)quinazolin-4-yl]-3-fluoro-phenyl]-4-chloro-benzenesulfonamide], for which the IC50 at c-kit kinase and on c-kit mutant D816V (setting [1]) was 0.0001 to 1 µM each time.

Turning to `COCCOc1cc2ncnc(-c3ccc(NS(=O)(=O)c4ccc(OC)cc4)cc3F)c2cc1OCCOC` [P-0262, N-[4-[6,7-bis(2-methoxyethoxy)quinazolin-4-yl]-3-fluoro-phenyl]-4-methoxy-benzenesulfonamide], the IC50 on c-kit kinase and on c-kit mutant D816V (setting [1]) was 0.0001 to 1 µM throughout.

For the compound `COCCOc1cc2ncnc(-c3ccc(NS(=O)(=O)C4CC4)cc3F)c2cc1OCCOC` [P-0263, N-[4-[6,7-bis(2-methoxyethoxy)quinazolin-4-yl]-3-fluoro-phenyl]cyclopropanesulfonamide], the IC50 at c-kit kinase was 10 to 200 µM; on c-kit mutant D816V (setting [1]), 0.0001 to 1 µM.

Turning to `COCCOc1cc2ncnc(-c3ccc(NS(C)(=O)=O)cc3F)c2cc1OCCOC` [P-0264, N-[4-[6,7-bis(2-methoxyethoxy)quinazolin-4-yl]-3-fluoro-phenyl]methanesulfonamide], the values for the IC50 at c-kit kinase and on c-kit mutant D816V (setting [1]) were 10 to 200 µM and 0.0001 to 1 µM, respectively.

Consider `O=S(=O)(Nc1ccc(-c2ncnc3cc4c(cc23)OCCO4)c(F)c1)C1CC1` [P-0265, N-[4-(7,8-dihydro-[1,4]dioxino[2,3-g]quinazolin-4-yl)-3-fluoro-phenyl]cyclopropanesulfonamide], for which the IC50 on c-kit kinase and on c-kit mutant D816V (setting [1]) was 10 to 200 µM throughout.

Turning to `CS(=O)(=O)Nc1ccc(-c2ncnc3cc4c(cc23)OCCO4)c(F)c1` [P-0266, N-[4-(7,8-dihydro-[1,4]dioxino[2,3-g]quinazolin-4-yl)-3-fluoro-phenyl]methanesulfonamide], the IC50 on c-kit kinase and on c-kit mutant D816V (setting [1]) was 1 to 10 µM throughout.

In the case of `COc1cc2ncnc(-c3ccc(N)cc3F)c2cc1OC` [P-0267, 4-(6,7-dimethoxyquinazolin-4-yl)-3-fluoro-aniline], the IC50 fell in the range of 10 to 200 µM on c-kit kinase and 0.0001 to 1 µM at c-kit mutant D816V (setting [1]).

Turning to `COc1cc2ncnc(-c3ccc(NS(=O)(=O)c4ccc(Cl)cc4)cc3F)c2cc1OC` [P-0268, 4-chloro-N-[4-(6,7-dimethoxyquinazolin-4-yl)-3-fluoro-phenyl]benzenesulfonamide], the IC50 on c-kit kinase was in the range of 1 to 10 µM; on c-kit mutant D816V (setting [1]), 0.0001 to 1 µM.

For the compound `CCCS(=O)(=O)Nc1ccc(-c2ncnc3cc(OC)c(OC)cc23)c(F)c1` [P-0269, N-[4-(6,7-dimethoxyquinazolin-4-yl)-3-fluoro-phenyl]propane-1-sulfonamide], the values for the IC50 on c-kit kinase and at c-kit mutant D816V (setting [1]) were 10 to 200 µM and 0.0001 to 1 µM, respectively.

For the compound `COc1cc2ncnc(-c3ccc(NS(=O)(=O)C4CC4)cc3F)c2cc1OC` [P-0270, N-[4-(6,7-dimethoxyquinazolin-4-yl)-3-fluoro-phenyl]cyclopropanesulfonamide], the IC50 fell in the range of 10 to 200 µM on c-kit kinase and 0.0001 to 1 µM on c-kit mutant D816V (setting [1]).

Take `COc1cc2ncnc(-c3ccc(NS(C)(=O)=O)cc3F)c2cc1OC` [P-0271, N-[4-(6,7-dimethoxyquinazolin-4-yl)-3-fluoro-phenyl]methanesulfonamide]: the results for the IC50 at c-kit kinase and at c-kit mutant D816V (setting [1]) were 1 to 10 µM and 0.0001 to 1 µM, respectively.

`Cc1ccc(-c2cc3c(C4=CCC(NS(=O)(=O)c5ccc(OC(F)(F)F)cc5)CC4)ncnc3[nH]2)cn1` (stereo not shown) [P-0281, N-[4-[6-(6-methyl-3-pyridyl)-7H-pyrrolo[2,3-d]pyrimidin-4-yl]cyclohex-3-en-1-yl]-4-(trifluoromethoxy)benzenesulfonamide]: the IC50 at c-kit kinase lay in the range of 10 to 200 µM; at c-kit mutant D816V (setting [1]), 0.0001 to 1 µM.

In the case of `CCCc1ccc(S(=O)(=O)Nc2ccc(-c3ncnc4[nH]c(C)cc34)cc2)cc1` [P-0282, N-[4-(6-methyl-7H-pyrrolo[2,3-d]pyrimidin-4-yl)phenyl]-4-propyl-benzenesulfonamide], the IC50 lay in the range of 1 to 10 µM at c-kit kinase and 0.0001 to 1 µM at c-kit mutant D816V (setting [1]).

As for `Cc1cccc(S(=O)(=O)Nc2ccc(-c3ncnc4[nH]c(C)cc34)cc2)c1` [P-0283, 3-methyl-N-[4-(6-methyl-7H-pyrrolo[2,3-d]pyrimidin-4-yl)phenyl]benzenesulfonamide], the values for the IC50 on c-kit kinase and on c-kit mutant D816V (setting [1]) were 10 to 200 µM and 1 to 10 µM, respectively.

Regarding `Cc1cc2c(-c3ccc(NS(=O)(=O)c4cccc(OC(F)(F)F)c4)cc3)ncnc2[nH]1` [P-0284, N-[4-(6-methyl-7H-pyrrolo[2,3-d]pyrimidin-4-yl)phenyl]-3-(trifluoromethoxy)benzenesulfonamide], the IC50 was in the range of 10 to 200 µM at c-kit kinase and 1 to 10 µM at c-kit mutant D816V (setting [1]).

With `Cn1cc(-c2cc3c(C4=CCC(NS(=O)(=O)c5ccc(OC(F)(F)F)cc5)CC4)ncnc3[nH]2)cn1` (stereo not shown) [P-0285, N-[4-[6-(1-methylpyrazol-4-yl)-7H-pyrrolo[2,3-d]pyrimidin-4-yl]cyclohex-3-en-1-yl]-4-(trifluoromethoxy)benzenesulfonamide], the concentration for half-maximal inhibition (IC50) on c-kit kinase is 1 to 10 µM; on c-kit mutant D816V (setting [1]), 0.0001 to 1 µM.

As to `Cc1ccc(S(=O)(=O)Nc2ccc(-c3ncnc4[nH]c(C)cc34)c(F)c2)cn1` [P-0286, N-[3-fluoro-4-(6-methyl-7H-pyrrolo[2,3-d]pyrimidin-4-yl)phenyl]-6-methyl-pyridine-3-sulfonamide], the IC50 lay in the range of 1 to 10 µM on c-kit kinase and 0.0001 to 1 µM at c-kit mutant D816V (setting [1]).

As for `CCCCc1ccc(S(=O)(=O)Nc2ccc(-c3ncnc4[nH]c(C)cc34)cc2)cc1` [P-0287, 4-butyl-N-[4-(6-methyl-7H-pyrrolo[2,3-d]pyrimidin-4-yl)phenyl]benzenesulfonamide], the IC50 on c-kit kinase was in the range of 10 to 200 µM; on c-kit mutant D816V (setting [1]), 1 to 10 µM.

The compound `CCCCS(=O)(=O)Nc1ccc(-c2ncnc3[nH]c(C)cc23)cc1` [P-0288, N-[4-(6-methyl-7H-pyrrolo[2,3-d]pyrimidin-4-yl)phenyl]butane-1-sulfonamide] showed a pIC50 at c-kit kinase of 3.70 to 5.00. Further, the IC50 at c-kit mutant D816V (Biochemical activity (IC50 μM) Kit D816V) fell in the range of 1 to 10 µM.

Consider `CCCS(=O)(=O)Nc1ccc(-c2ncnc3[nH]c(C)cc23)cc1` [P-0289, N-[4-(6-methyl-7H-pyrrolo[2,3-d]pyrimidin-4-yl)phenyl]propane-1-sulfonamide], for which the figures for the IC50 on c-kit kinase and at c-kit mutant D816V (setting [1]) were 10 to 200 µM and 0.0001 to 1 µM, respectively.
